Measurements from patent publication US20250346600A1, “TRICYCLIC DERIVATIVES AND RELATED USES” (MOMA Therapeutics, Inc., priority 2023, published 2025).
Where two headings read alike, the source gives them in different places.

Columns and labels:
HT29 cells = assay: HT29 (MSS) 7 day viability, CellTiter Glo; assay type: cell-based; conditions: 7 days, read-out: HT29 (MSS) Viability 7 Day CTGAbs AC50
Method: (§1) Compounds were dissolved in DMSO to a concentration of 10 mM. Compounds were then serially diluted in 10 3-fold steps in DMSO using an EVO (Tecan). Plates were then spun down for 1 minute at 1,000 RPM at room temperature.
(§2) The colon carcinoma lines HCT116 (RRID: CVCL_0291) and HT29 (RRID: CVCL_0320) were obtained from ATCC. […] All cells were maintained at 37° C. with 5% CO2 incubator.
(§3) After harvesting, cells were spun down for 5 minutes at 1200 RPM. Cells were resuspended in 10 mL of growth media and counted using Countess (Thermo Fisher). Cell concentrations were adjusted to 50 cells/well for HCT116 and 500 cells/well for HT29. 50 μL of diluted cells were added to compound treated 384 well plates using a 12 channel, 300 uL electronic handheld pipette (Integra). Cell treated plates were placed in 37 C with 5% CO2 incubator for 7 days.
(§4) Afterwards, cells were removed from incubator and equilibrated to room temperature for 15 minutes. 35 uL of CellTiter Glo (Promega #G7573) reagent were added to each well using a 12 channel, 300 uL electronic handheld pipette (Integra). Plates were incubated for 20 minutes at room temperature. Luminescence quantification was performed using Envision (PerkinElmer).
(§5) For data analysis, the assay background signal was determined in wells containing medium, but no cells. Potencies were calculated by linear least squares fit to the four-parameter logistic IC50 equation. The reported IC50 values are the geometrical mean of at least 2 independent replicates.

HCT116 cells = assay: HCT116 (MSI) 7 day viability, CellTiter Glo; assay type: cell-based; conditions: 7 days, read-out: HCT116 (MSI) Viability 7 Day Abs AC50
Method: as §1, §2, §3, §4, §5

[1] = molecular target: Full length WRN protein (aa 2-1432) (Homo sapiens (Human), UniProt Q14191); assay: WRN ATPase ADP-Glo biochemical assay, Assay Format B (100 μM ATP); conditions: 0.25 nM WRN, 100 nM C6.18 ssDNA, 60 min preincubation, read-out: ATPase ADPGlo AC50 (uM)- Assay Format B
Chain of Full length WRN protein (aa 2-1432) (Q14191 2-1432): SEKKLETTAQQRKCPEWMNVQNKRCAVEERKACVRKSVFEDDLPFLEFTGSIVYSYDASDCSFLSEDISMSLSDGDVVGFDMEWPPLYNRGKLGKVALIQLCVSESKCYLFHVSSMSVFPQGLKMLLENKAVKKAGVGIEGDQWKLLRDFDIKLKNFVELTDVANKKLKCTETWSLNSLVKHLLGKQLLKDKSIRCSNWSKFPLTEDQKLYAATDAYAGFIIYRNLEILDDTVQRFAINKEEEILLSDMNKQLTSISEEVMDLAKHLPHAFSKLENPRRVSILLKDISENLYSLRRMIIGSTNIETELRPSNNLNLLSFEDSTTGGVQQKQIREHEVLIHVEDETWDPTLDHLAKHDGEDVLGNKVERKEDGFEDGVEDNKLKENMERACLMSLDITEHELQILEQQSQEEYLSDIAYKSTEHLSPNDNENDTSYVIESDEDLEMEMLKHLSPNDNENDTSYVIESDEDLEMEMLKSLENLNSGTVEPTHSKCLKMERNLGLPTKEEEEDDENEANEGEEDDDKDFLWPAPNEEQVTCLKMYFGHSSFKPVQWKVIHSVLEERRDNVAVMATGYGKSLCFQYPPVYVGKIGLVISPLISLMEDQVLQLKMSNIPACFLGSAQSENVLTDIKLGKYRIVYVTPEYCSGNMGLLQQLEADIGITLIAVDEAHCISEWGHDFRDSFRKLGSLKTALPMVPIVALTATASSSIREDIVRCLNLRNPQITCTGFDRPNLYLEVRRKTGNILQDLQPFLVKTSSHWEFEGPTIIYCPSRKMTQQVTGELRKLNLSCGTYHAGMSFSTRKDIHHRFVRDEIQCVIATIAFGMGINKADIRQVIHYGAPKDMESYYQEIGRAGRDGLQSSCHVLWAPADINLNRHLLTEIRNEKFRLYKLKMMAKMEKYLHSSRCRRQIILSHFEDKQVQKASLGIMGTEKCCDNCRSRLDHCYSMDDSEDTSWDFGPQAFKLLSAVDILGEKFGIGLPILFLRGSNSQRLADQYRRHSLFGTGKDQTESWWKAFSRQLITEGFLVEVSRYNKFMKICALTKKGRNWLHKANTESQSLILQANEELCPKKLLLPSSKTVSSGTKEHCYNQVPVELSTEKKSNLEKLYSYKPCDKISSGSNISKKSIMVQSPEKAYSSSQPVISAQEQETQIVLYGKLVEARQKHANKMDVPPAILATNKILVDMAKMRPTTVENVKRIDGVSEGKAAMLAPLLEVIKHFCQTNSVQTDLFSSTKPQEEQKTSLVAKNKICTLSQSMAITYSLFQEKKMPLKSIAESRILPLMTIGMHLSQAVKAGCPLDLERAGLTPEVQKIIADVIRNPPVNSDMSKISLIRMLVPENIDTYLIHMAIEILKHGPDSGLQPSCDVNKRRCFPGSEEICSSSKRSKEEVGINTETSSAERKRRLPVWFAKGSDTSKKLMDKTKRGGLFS

Row | AC50 [1] | Molecule | AC50 (HT29 cells; Homo sapiens, HT-29, 168 h) | AC50 (HCT116 cells; Homo sapiens, HCT-116, 168 h) | AC50 (HT29 cells) | AC50 (HCT116 cells)
1 | 0.005 to 0.015 µM | C=CC(=O)N1CCc2nn(-c3cc(F)c(C4CC4)cc3O)c3c2C(C1)N(C(=O)c1cnc(C(C)(F)F)c(F)c1N)CC3 (stereo not shown) [Compound 253, 1-[7-[4-amino-6-(1,1-difluoroethyl)-5-fluoro-pyridine-3-carbonyl]-3-(4-cyclopropyl-5-fluoro-2-hydroxy-phenyl)-2,3,7,10-tetrazatricyclo[6.4.1.04,1 3]trideca-1,4(13)-dien-10-yl]prop-2-en-1-one] | > 3000 nM | 1 to 100 nM | – | –
2 | 0.015 to 0.055 µM | C=CC(=O)N1CC(OCc2cnc3sccn23)c2nn(-c3ccc(C4CC4)cc3)c3c2C(C1)N(C(=O)c1ccc(C(F)(F)F)nc1)CC3 (stereo not shown) [Compound 234, 1-(2-(4-cyclopropylphenyl)-9-(imidazo[2,1-b]thiazol-5-ylmethoxy)-5-(6-(trifluoromethyl)nicotinoyl)-2,3,4,5,5a,6,8,9-octahydro-7H-1,2,5,7-tetraazabenzo[cd]azulen-7-yl)prop-2-en-1-one] | > 3000 nM | 1 to 100 nM | – | –
3 | 0.005 to 0.015 µM | C=CC(=O)N1CCc2nn(-c3ccc(C4CC4)c(F)c3O)c3c2C(C1)N(C(=O)c1cnc(C(C)(F)F)c(F)c1N)CC3 (stereo not shown) [Compound 227, 1-(5-(4-amino-6-(1,1-difluoroethyl)-5-fluoronicotinoyl)-2-(4-cyclopropyl-3-fluoro-2-hydroxyphenyl)-2,3,4,5,5a,6,8,9-octahydro-7H-1,2,5,7-tetraazabenzo[cd]azulen-7-yl)prop-2-en-1-one] | < 1000 nM | 1 to 100 nM | – | –
4 | 0.005 to 0.015 µM | C=CC(=O)N1CCc2nn(-c3ccc(C4CCC4)cc3)c3c2C(C1)N(C(=O)c1ccc2c(Cl)ncn2c1)CC3 (stereo not shown) [Compound 236, 1-(5-(1-chloroimidazo[1,5-a]pyridine-6-carbonyl)-2-(4-cyclobutylphenyl)-2,3,4,5,5a,6,8,9-octahydro-7H-1,2,5,7-tetraazabenzo[cd]azulen-7-yl)prop-2-en-1-one] | > 3000 nM | 1 to 100 nM | – | –
5 | 0.015 to 0.055 µM | C=CC(=O)N1CCc2nn(-c3ccc(C4CC4)cc3CO)c3c2C(C1)N(C(=O)c1cnc(C(F)(F)F)cc1N)CC3 (stereo not shown) [Compound 225, 1-(5-(4-amino-6-(trifluoromethyl)nicotinoyl)-2-(4-cyclopropyl-2-(hydroxymethyl)phenyl)-2,3,4,5,5a,6,8,9-octahydro-7H-1,2,5,7-tetraazabenzo[cd]azulen-7-yl)prop-2-en-1-one] | > 3000 nM | 100 to 250 nM | – | –
6 | 0.015 to 0.055 µM | C=CC(=O)N1CCc2nn(-c3ccc(C4CC4)c(F)c3O)c3c2C(C1)N(C(=O)c1cnc(Br)c(F)c1N)CC3 (stereo not shown) [Compound 229, 1-(5-(4-amino-6-bromo-5-fluoronicotinoyl)-2-(4-cyclopropyl-3-fluoro-2-hydroxyphenyl)-2,3,4,5,5a,6,8,9-octahydro-7H-1,2,5,7-tetraazabenzo[cd]azulen-7-yl)prop-2-en-1-one] | – | – | > 3000 nM | 1 to 100 nM
7 | 0.005 to 0.015 µM | C=CC(=O)N1CCc2nn(-c3cc(F)c(C4CC4)cc3O)c3c2C(C1)N(C(=O)c1cnc(C(F)(F)F)cc1N)CC3 (stereo not shown) [Compound 224, 1-(5-(4-amino-6-(trifluoromethyl)nicotinoyl)-2-(4-cyclopropyl-5-fluoro-2-hydroxyphenyl)-2,3,4,5,5a,6,8,9-octahydro-7H-1,2,5,7-tetraazabenzo[cd]azulen-7-yl)prop-2-en-1-one] | > 3000 nM | 1 to 100 nM | – | –
8 | 0.0015 to 0.005 µM | C=CC(=O)N1CCc2nn(-c3ccc(C4CC4)cc3O)c3c2C(C1)N(C(=O)c1nnc(Br)cc1N)CC3 (stereo not shown) [Compound 228, 1-(5-(4-amino-6-bromopyridazine-3-carbonyl)-2-(4-cyclopropyl-2-hydroxyphenyl)-2,3,4,5,5a,6,8,9-octahydro-7H-1,2,5,7-tetraazabenzo[cd]azulen-7-yl)prop-2-en-1-one] | > 3000 nM | 1 to 100 nM | – | –

The remaining lines, values behind:

Row | Molecule | AC50 [1] | AC50 (HT29 cells; Homo sapiens, HT-29, 168 h) | AC50 (HCT116 cells; Homo sapiens, HCT-116, 168 h) | AC50 (HT29 cells) | AC50 (HCT116 cells)
9 | C=CC(=O)N1CCc2nn(-c3ccc(C4CCC4)cc3O)c3c2C(C1)N(C(=O)c1cc(F)c(C(F)(F)F)nc1N)CC3 (stereo not shown) [Compound 165, 1-(5-(2-amino-5-fluoro-6-(trifluoromethyl)nicotinoyl)-2-(4-cyclobutyl-2-hydroxyphenyl)-2,3,4,5,5a,6,8,9-octahydro-7H-1,2,5,7-tetraazabenzo[cd]azulen-7-yl)prop-2-en-1-one] | 0.015 to 0.055 µM | > 3000 nM | 1 to 100 nM | – | –
10 | C=CC(=O)N1CCc2nn(-c3ccc(C(C)C)cc3)c3c2C(C1C)N(C(=O)c1cnc(C(F)(F)F)cc1N)CC3 (stereo not shown) [Compound 168, 1-(5-(4-amino-6-(trifluoromethyl)nicotinoyl)-2-(4-isopropylphenyl)-6-methyl-2,3,4,5,5a,6,8,9-octahydro-7H-1,2,5,7-tetraazabenzo[cd]azulen-7-yl)prop-2-en-1-one] | 0.005 to 0.015 µM | > 3000 nM | 1 to 100 nM | – | –
11 | C=CC(=O)N1CCc2nn(-c3ccc(C4CCC4)cc3C#N)c3c2C(C1)N(C(=O)c1cnc(C(F)(F)F)cc1N)CC3 (stereo not shown) [Compound 171, 2-(7-acryloyl-5-(4-amino-6-(trifluoromethyl)nicotinoyl)-3,4,5,5a,6,7,8,9-octahydro-2H-1,2,5,7-tetraazabenzo[cd]azulen-2-yl)-5-cyclobutylbenzonitrile] | 0.015 to 0.055 µM | > 3000 nM | 1 to 100 nM | – | –
12 | C=CC(=O)N1CCc2nn(-c3ccc(C4CC4)cc3O)c3c2C(C1)N(C(=O)c1cnc(SC)c(F)c1N)CC3 (stereo not shown) [Compound 223, 1-(5-(4-amino-5-fluoro-6-(methylthio)nicotinoyl)-2-(4-cyclopropyl-2-hydroxyphenyl)-2,3,4,5,5a,6,8,9-octahydro-7H-1,2,5,7-tetraazabenzo[cd]azulen-7-yl)prop-2-en-1-one] | 0.0015 to 0.005 µM | > 3000 nM | 1 to 100 nM | – | –
13 | C=CC(=O)N1CCc2nn(-c3ccc(C4CCCC4)cc3O)c3c2C(C1)N(C(=O)c1cnc(C(F)(F)F)cc1N)CC3 (stereo not shown) [Compound 217, 1-(5-(4-amino-6-(trifluoromethyl)nicotinoyl)-2-(4-cyclopentyl-2-hydroxyphenyl)-2,3,4,5,5a,6,8,9-octahydro-7H-1,2,5,7-tetraazabenzo[cd]azulen-7-yl)prop-2-en-1-one] | 0.0015 to 0.005 µM | > 3000 nM | 1 to 100 nM | – | –
14 | C=CC(=O)N1CCc2nn(-c3ccc(C4CC4)c(F)c3O)c3c2C(C1)N(C(=O)c1cnc(Br)cc1N)CC3 (stereo not shown) [Compound 215, 1-(5-(4-amino-6-bromonicotinoyl)-2-(4-cyclopropyl-3-fluoro-2-hydroxyphenyl)-2,3,4,5,5a,6,8,9-octahydro-7H-1,2,5,7-tetraazabenzo[cd]azulen-7-yl)prop-2-en-1-one] | 0.0015 to 0.005 µM | > 3000 nM | 1 to 100 nM | – | –
15 | C=CC(=O)N1CCc2nn(-c3ccc(C4CCC4)cc3O)c3c2C(C1)N(C(=O)c1cnc(Br)cc1N)CC3 (stereo not shown) [Compound 132, 1-(5-(4-amino-6-bromonicotinoyl)-2-(4-cyclobutyl-2-hydroxyphenyl)-2,3,4,5,5a,6,8,9-octahydro-7H-1,2,5,7-tetraazabenzo[cd]azulen-7-yl)prop-2-en-1-one] | 0.0015 to 0.005 µM | > 3000 nM | 1 to 100 nM | – | –
16 | C=CC(=O)N1CCc2nn(-c3ccc(C4CC4)cc3)c3c2C(C1)N(C(=O)c1cnc(SC)nc1N)CC3 (stereo not shown) [Compound 204, 1-(5-(4-amino-2-(methylthio)pyrimidine-5-carbonyl)-2-(4-cyclopropylphenyl)-2,3,4,5,5a,6,8,9-octahydro-7H-1,2,5,7-tetraazabenzo[cd]azulen-7-yl)prop-2-en-1-one] | 0.015 to 0.055 µM | > 3000 nM | 1 to 100 nM | – | –
17 | C=CC(=O)N1CCc2nn(-c3ccc(C(C)C)c(F)c3O)c3c2C(C1)N(C(=O)c1cnc(C(F)(F)F)c(O)c1)CC3 (stereo not shown) [Compound 64, 1-(2-(3-fluoro-2-hydroxy-4-isopropylphenyl)-5-(5-hydroxy-6-(trifluoromethyl)nicotinoyl)-2,3,4,5,5a,6,8,9-octahydro-7H-1,2,5,7-tetraazabenzo[cd]azulen-7-yl)prop-2-en-1-one] | 0.015 to 0.055 µM | > 3000 nM | 1 to 100 nM | – | –
18 | C=CC(=O)N1CCOc2nn(-c3ccc(C(C)C)c(O)n3)c3c2C(C1)N(C(=O)c1ccc(Br)c2[nH]cnc12)CC3 (stereo not shown) [Compound 105, 1-(5-(7-bromo-1H-benzo[d]imidazole-4-carbonyl)-2-(6-hydroxy-5-isopropylpyridin-2-yl)-2,3,4,5,5a,6,8,9-octahydro-7H-10-oxa-1,2,5,7-tetraazacycloocta[cd]inden-7-yl)prop-2-en-1-one] | – | > 3000 nM | > 1000 nM | – | –
19 | 1-(5-(7-bromo-1H- benzo[d]imidazole-4- carbonyl)-2-(4- cyclobutylphenyl)- 2,3,4,5,5a,6-hexahydro- 1,2,5,7- tetraazaspiro[benzo[cd] azulene-9,1′- cyclopropan]-1(9a),2a- dien-7(8H)-yl)prop-2-en- 1-one [Compound 169] | – | – | – | > 3000 nM | 1 to 100 nM
